Measured values taken from patent publication US12077503B2, “Substituted cyclic amides and their use as herbicides” (FMC CORPORATION, priority 2015, dated 2024).

How the values were obtained:
Assay type in all cases: in vivo
[1] = system: redroot pigweed (Amaranthus retroflexus); test: Test G Pre-Emergence Protocol; conditions: Amaranthus retroflexus, pre-emergence, 312 h, evaluated after 13 days; for pest or weed control at 15.625 g/ha: 15.625 g ai/ha; for pest or weed control at 15.625 g/ha / pest or weed control at 250 g/ha: read-out: Pigweed, Redroot damage rating (100=total damage to plant; 0=no damage to plant); for pest or weed control at 62.5 g/ha: 62.5 g ai/ha, 100=total damage to plant, 0=no damage to plant, read-out: Pigweed, Redroot damage rating; for pest or weed control at 250 g/ha: 250 g ai/ha
Method in brief: (§1)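 One day after sowing, pots are treated with a spray of test compound formulated in acetone/water 50:50 plus 0.5% Tween 20, giving 15.625, 62.5 or 250 g/ha. Evaluation on a 0–100 damage scale follows 13 days of glasshouse growth.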

[2] = system: barnyardgrass (Echinochloa crus-galli); test: Test G Pre-Emergence Protocol; conditions: Echinochloa crus-galli, pre-emergence, 312 h, evaluated after 13 days; for pest or weed control at 15.625 g/ha: 15.625 g ai/ha; for pest or weed control at 15.625 g/ha / pest or weed control at 250 g/ha: read-out: Barnyardgrass damage rating (100=total damage to plant; 0=no damage to plant); for pest or weed control at 62.5 g/ha: 62.5 g ai/ha, 100=total damage to plant, 0=no damage to plant, read-out: Barnyardgrass damage rating; for pest or weed control at 250 g/ha: 250 g ai/ha
Method in brief: as §1

[3] = system: ivy-leaved morning glory (Ipomoea hederacea); test: Test G Pre-Emergence Protocol; conditions: Ipomoea, pre-emergence, 312 h, evaluated after 13 days; for pest or weed control at 15.625 g/ha: 15.625 g ai/ha; for pest or weed control at 15.625 g/ha / pest or weed control at 250 g/ha: read-out: Morningglory, Ivy-leaved damage rating (100=total damage to plant; 0=no damage to plant); for pest or weed control at 62.5 g/ha: 62.5 g ai/ha, 100=total damage to plant, 0=no damage to plant, read-out: Morningglory, Ivy-leaved damage rating; for pest or weed control at 250 g/ha: 250 g ai/ha
Method in brief: as §1

corn (Zea mays) [4] = test: Test G Pre-Emergence Protocol; conditions: Zea mays, pre-emergence, 312 h, evaluated after 13 days; for plant injury at 15.625 g/ha: 15.625 g ai/ha; for plant injury at 15.625 g/ha / plant injury at 250 g/ha: read-out: Corn damage rating (100=total damage to plant; 0=no damage to plant); for plant injury at 62.5 g/ha: 62.5 g ai/ha, 100=total damage to plant, 0=no damage to plant, read-out: Corn damage rating; for plant injury at 250 g/ha: 250 g ai/ha
Method in brief: as §1

[5] = system: velvetleaf (Abutilon theophrasti); test: Test G Pre-Emergence Protocol; conditions: Abutilon theophrasti, pre-emergence, 312 h, evaluated after 13 days; for pest or weed control at 15.625 g/ha: 15.625 g ai/ha; for pest or weed control at 15.625 g/ha / pest or weed control at 250 g/ha: read-out: Velvetleaf damage rating (100=total damage to plant; 0=no damage to plant); for pest or weed control at 62.5 g/ha: 62.5 g ai/ha, 100=total damage to plant, 0=no damage to plant, read-out: Velvetleaf damage rating; for pest or weed control at 250 g/ha: 250 g ai/ha
Method in brief: as §1

[6] = system: giant foxtail (Setaria faberi); test: Test G Pre-Emergence Protocol; conditions: Setaria faberi, pre-emergence, 312 h, evaluated after 13 days; for pest or weed control at 15.625 g/ha: 15.625 g ai/ha; for pest or weed control at 15.625 g/ha / pest or weed control at 250 g/ha: read-out: Foxtail, Giant damage rating (100=total damage to plant; 0=no damage to plant); for pest or weed control at 62.5 g/ha: 62.5 g ai/ha, 100=total damage to plant, 0=no damage to plant, read-out: Foxtail, Giant damage rating; for pest or weed control at 250 g/ha: 250 g ai/ha
Method in brief: as §1

[7] = system: redroot pigweed (Amaranthus retroflexus); test: Test G Post-Emergence Protocol; conditions: Amaranthus retroflexus, post-emergence, 312 h, read-out: Pigweed, Redroot damage rating; for pest or weed control at 15.625 g/ha: 15.625 g ai/ha, evaluated after 13 days (100=total damage to plant; 0=no damage to plant); for pest or weed control at 62.5 g/ha: 62.5 g ai/ha; for pest or weed control at 62.5 g/ha / pest or weed control at 250 g/ha: evaluated after 13 days, 100=total damage to plant, 0=no damage to plant; for pest or weed control at 250 g/ha: 250 g ai/ha
Method in brief: (§2)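 Pot-grown seedlings, 8 days old, raised in a glasshouse at 24/16 °C day/night with 14 h light and 65% humidity, were sprayed post-emergence with test compound in acetone/water (50:50) plus 0.5% Tween 20 at 15.625, 62.5 or 250 g/ha. Damage was scored visually 13 days later on a 0–100 scale (100 = total damage).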

[8] = system: barnyardgrass (Echinochloa crus-galli); test: Test G Post-Emergence Protocol; conditions: Echinochloa crus-galli, post-emergence, 312 h, read-out: Barnyardgrass damage rating; for pest or weed control at 15.625 g/ha: 15.625 g ai/ha, evaluated after 13 days (100=total damage to plant; 0=no damage to plant); for pest or weed control at 62.5 g/ha: 62.5 g ai/ha; for pest or weed control at 62.5 g/ha / pest or weed control at 250 g/ha: evaluated after 13 days, 100=total damage to plant, 0=no damage to plant; for pest or weed control at 250 g/ha: 250 g ai/ha
Method in brief: as §2

[9] = system: ivy-leaved morning glory (Ipomoea hederacea); test: Test G Post-Emergence Protocol; conditions: Ipomoea, post-emergence, 312 h, read-out: Morningglory, Ivy-leaved damage rating; for pest or weed control at 15.625 g/ha: 15.625 g ai/ha, evaluated after 13 days (100=total damage to plant; 0=no damage to plant); for pest or weed control at 62.5 g/ha: 62.5 g ai/ha; for pest or weed control at 62.5 g/ha / pest or weed control at 250 g/ha: evaluated after 13 days, 100=total damage to plant, 0=no damage to plant; for pest or weed control at 250 g/ha: 250 g ai/ha
Method in brief: as §2

corn (Zea mays) [10] = test: Test G Post-Emergence Protocol; conditions: Zea mays, post-emergence, 312 h, read-out: Corn damage rating; for plant injury at 15.625 g/ha: 15.625 g ai/ha, evaluated after 13 days (100=total damage to plant; 0=no damage to plant); for plant injury at 62.5 g/ha: 62.5 g ai/ha; for plant injury at 62.5 g/ha / plant injury at 250 g/ha: evaluated after 13 days, 100=total damage to plant, 0=no damage to plant; for plant injury at 250 g/ha: 250 g ai/ha
Method in brief: as §2

[11] = system: velvetleaf (Abutilon theophrasti); test: Test G Post-Emergence Protocol; conditions: Abutilon theophrasti, post-emergence, 312 h, read-out: Velvetleaf damage rating; for pest or weed control at 15.625 g/ha: 15.625 g ai/ha, evaluated after 13 days (100=total damage to plant; 0=no damage to plant); for pest or weed control at 62.5 g/ha: 62.5 g ai/ha; for pest or weed control at 62.5 g/ha / pest or weed control at 250 g/ha: evaluated after 13 days, 100=total damage to plant, 0=no damage to plant; for pest or weed control at 250 g/ha: 250 g ai/ha
Method in brief: as §2

[12] = system: giant foxtail (Setaria faberi); test: Test G Post-Emergence Protocol; conditions: Setaria faberi, post-emergence, 312 h, read-out: Foxtail, Giant damage rating; for pest or weed control at 15.625 g/ha: 15.625 g ai/ha, evaluated after 13 days (100=total damage to plant; 0=no damage to plant); for pest or weed control at 62.5 g/ha: 62.5 g ai/ha; for pest or weed control at 62.5 g/ha / pest or weed control at 250 g/ha: evaluated after 13 days, 100=total damage to plant, 0=no damage to plant; for pest or weed control at 250 g/ha: 250 g ai/ha
Method in brief: as §2

Row | SMILES | pest or weed control at 15.625 g/ha [1] [%] | pest or weed control at 62.5 g/ha [1] [%] | pest or weed control at 250 g/ha [1] [%] | pest or weed control at 15.625 g/ha [2] [%] | pest or weed control at 62.5 g/ha [2] [%] | pest or weed control at 250 g/ha [2] [%] | pest or weed control at 15.625 g/ha [3] [%] | pest or weed control at 62.5 g/ha [3] [%] | pest or weed control at 250 g/ha [3] [%] | plant injury at 15.625 g/ha (corn (Zea mays) [4]) [%] | plant injury at 62.5 g/ha (corn (Zea mays) [4]) [%] | plant injury at 250 g/ha (corn (Zea mays) [4]) [%] | pest or weed control at 15.625 g/ha [5] [%] | pest or weed control at 62.5 g/ha [5] [%] | pest or weed control at 250 g/ha [5] [%] | pest or weed control at 15.625 g/ha [6] [%] | pest or weed control at 62.5 g/ha [6] [%] | pest or weed control at 250 g/ha [6] [%] | pest or weed control at 15.625 g/ha [7] [%] | pest or weed control at 62.5 g/ha [7] [%] | other results
1 | CC(O)c1ccccc1NC(=O)[C@H]1C(=O)N(C)C[C@@H]1c1cccc(C(F)(F)F)c1 (mixture of isomers) [Compound 1783] | 0 | 0 | 40 | 50 | 90 | 90 | 10 | 10 | 40 | 50 | 80 | 90 | 0 | 10 | 70 | 80 | 90 | 90 | 0 | 0 | pest or weed control at 250 g/ha [7]: 20%; pest or weed control at 15.625 g/ha [8]: 70%; pest or weed control at 62.5 g/ha [8]: 80%; pest or weed control at 250 g/ha [8]: 80%; pest or weed control at 15.625 g/ha [9]: 10%; pest or weed control at 62.5 g/ha [9]: 60%; pest or weed control at 250 g/ha [9]: 70%; plant injury at 15.625 g/ha (corn (Zea mays) [10]): 70%; plant injury at 62.5 g/ha (corn (Zea mays) [10]): 80%; plant injury at 250 g/ha (corn (Zea mays) [10]): 80%; pest or weed control at 15.625 g/ha [11]: 0%; pest or weed control at 62.5 g/ha [11]: 20%; pest or weed control at 250 g/ha [11]: 50%; pest or weed control at 15.625 g/ha [12]: 80%; pest or weed control at 62.5 g/ha [12]: 80%; pest or weed control at 250 g/ha [12]: 80%
2 | CN1C[C@H](c2ccc(C(F)(F)F)cc2)[C@@H](C(=O)Nc2cccc(F)[n+]2[O-])C1=O (racemic) [Compound 1814] | 0 | 0 | 0 | 0 | 0 | 0 | 0 | 0 | 0 | 0 | 0 | 0 | 0 | 0 | 0 | 0 | 0 | 0 | 0 | 0 | pest or weed control at 250 g/ha [7]: 0%; pest or weed control at 15.625 g/ha [8]: 0%; pest or weed control at 62.5 g/ha [8]: 0%; pest or weed control at 250 g/ha [8]: 0%; pest or weed control at 15.625 g/ha [9]: 0%; pest or weed control at 62.5 g/ha [9]: 0%; pest or weed control at 250 g/ha [9]: 0%; plant injury at 15.625 g/ha (corn (Zea mays) [10]): 0%; plant injury at 62.5 g/ha (corn (Zea mays) [10]): 0%; plant injury at 250 g/ha (corn (Zea mays) [10]): 0%; pest or weed control at 15.625 g/ha [11]: 0%; pest or weed control at 62.5 g/ha [11]: 0%; pest or weed control at 250 g/ha [11]: 0%; pest or weed control at 15.625 g/ha [12]: 0%; pest or weed control at 62.5 g/ha [12]: 0%; pest or weed control at 250 g/ha [12]: 10%
